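Assay format: 96-well plates, 48-hour exposure. At the GI50, growth is halved.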 Calls of active or inactive are those of the source. No stated cut-off is given here; in the data, active = GI50 up to about 1.1 µM and inactive = higher.
Columns and labels:
Assay in all cases: NCI tumour cell line growth inhibition, 48 h
786-0 = test system: 786-0
A549 = test system: A549
DU-145 = test system: DU-145
EKVX = test system: EKVX
Hs-578T = test system: Hs-578T
IGROV-1 = test system: IGROV-1
KM12 = test system: KM12
MDA-MB-231 = test system: MDA-MB-231
NCI-H226 = test system: NCI-H226
NCI-H23 = test system: NCI-H23
OVCAR-8 = test system: OVCAR-8
SF-295 = test system: SF-295
SK-MEL-28 = test system: SK-MEL-28
SN12C = test system: SN12C
SR = test system: SR
T47D = test system: T47D
TK-10 = test system: TK-10
U-251 = test system: U-251
UACC-62 = test system: UACC-62
SW-620 = test system: SW-620

Structure (SMILES) | GI50 (786-0) | GI50 (A549) | GI50 (DU-145) | GI50 (EKVX) | GI50 (Hs-578T) | GI50 (IGROV-1) | GI50 (KM12) | GI50 (MDA-MB-231) | GI50 (NCI-H226) | GI50 (NCI-H23) | GI50 (OVCAR-8) | GI50 (SF-295) | GI50 (SK-MEL-28) | GI50 (SN12C) | GI50 (SR) | GI50 (T47D) | GI50 (TK-10) | GI50 (U-251) | GI50 (UACC-62) | GI50 (SW-620)
O=C1C=C(OCCCl)C(=O)c2c(O)ccc(O)c21 | 1.62 µM (inactive) | 0.262 µM (active) | 0.29 µM (active) | 1.91 µM (inactive) | 3.98 µM (inactive) | 1.81 µM (inactive) | 2.07 µM (inactive) | 1.78 µM (inactive) | 2.26 µM (inactive) | 0.242 µM (active) | 1.94 µM (inactive) | 1.56 µM (inactive) | 0.172 µM (active) | 0.225 µM (active) | 0.861 µM (active) | 2.24 µM (inactive) | 2.38 µM (inactive) | 1.84 µM (inactive) | 0.228 µM (active) | –
O=C1/C(=C/c2ccccc2[N+](=O)[O-])N=C(c2ccccc2)N1C1Nc2cc3c(cc2S1)NC(N1C(=O)/C(=C/c2ccccc2[N+](=O)[O-])N=C1c1ccccc1)S3 (stereo unspecified) | 22.3 µM (inactive) | 12.6 µM (inactive) | 30.8 µM (inactive) | 27.7 µM (inactive) | 50 µM (inactive) | 55.2 µM (inactive) | 52.4 µM (inactive) | 61.5 µM (inactive) | 31.5 µM (inactive) | 29 µM (inactive) | 39.5 µM (inactive) | 63.8 µM (inactive) | > 100 µM (inactive) | – | 8.51 µM (inactive) | 25.1 µM (inactive) | 72.4 µM (inactive) | 31 µM (inactive) | – | 50.4 µM (inactive)
OC(c1ccccc1)C(F)(F)c1nc2ccccc2o1 (stereo unspecified) | > 100 µM (inactive) | – | 67.5 µM (inactive) | > 100 µM (inactive) | > 100 µM (inactive) | > 100 µM (inactive) | > 100 µM (inactive) | > 100 µM (inactive) | > 100 µM (inactive) | > 100 µM (inactive) | > 100 µM (inactive) | > 100 µM (inactive) | > 100 µM (inactive) | – | > 100 µM (inactive) | 55.3 µM (inactive) | > 100 µM (inactive) | > 100 µM (inactive) | > 100 µM (inactive) | > 100 µM (inactive)
O=C1/C(=C/c2cccs2)N=C(c2ccccc2)N1c1nc2ccccc2s1 | 41.3 µM (inactive) | 41.5 µM (inactive) | 67.3 µM (inactive) | 49.9 µM (inactive) | 14.1 µM (inactive) | 16 µM (inactive) | > 100 µM (inactive) | > 100 µM (inactive) | > 100 µM (inactive) | > 100 µM (inactive) | 62.1 µM (inactive) | > 100 µM (inactive) | > 100 µM (inactive) | > 100 µM (inactive) | 33.6 µM (inactive) | 57.3 µM (inactive) | > 100 µM (inactive) | 95.1 µM (inactive) | – | 86.9 µM (inactive)
COc1cccc(/C(CC(O)(C(F)(F)F)C(F)(F)F)=N\N(C)C)c1 | > 100 µM (inactive) | > 100 µM (inactive) | > 100 µM (inactive) | > 100 µM (inactive) | > 100 µM (inactive) | > 100 µM (inactive) | > 100 µM (inactive) | > 100 µM (inactive) | > 100 µM (inactive) | > 100 µM (inactive) | – | > 100 µM (inactive) | > 100 µM (inactive) | > 100 µM (inactive) | > 100 µM (inactive) | > 100 µM (inactive) | > 100 µM (inactive) | > 100 µM (inactive) | > 100 µM (inactive) | > 100 µM (inactive)
Clc1cc2nnn(C3CCCCO3)c2cc1Cl (stereo unspecified) | > 100 µM (inactive) | 80.2 µM (inactive) | 99.1 µM (inactive) | 20.7 µM (inactive) | 35.4 µM (inactive) | > 100 µM (inactive) | 86.3 µM (inactive) | 24.5 µM (inactive) | 23.5 µM (inactive) | > 100 µM (inactive) | > 100 µM (inactive) | > 100 µM (inactive) | – | > 100 µM (inactive) | 51.6 µM (inactive) | 30.4 µM (inactive) | > 100 µM (inactive) | 80.7 µM (inactive) | 37.2 µM (inactive) | –
